For test [1], the system named is renal distal tubules. Kind of test: Intracellular Ca2+ imaging by 2-photon microscopy in Fluo-4-loaded live kidney slices ex vivo. In kind it is cell-based, mice. Conditions: co-treatment with 200 ng/ml rFGF23, 2 h, iFGFR pan 120 nM. How it is done:
(§1) The preparation of kidney slices for ex vivo experiments was performed as described in Andrukhova O et al. (EMBO J., 2014. 33, 229-246). Longitudinal 200-µm-thick live slices from freshly isolated kidneys of 3-month-old male WT and Klotho/VDR mice were prepared using a Leica VT1000 Vibratome (Leica Microsystems), and were used for ex vivo treatment with various substances as described below.
(§2) Longitudinal 200-µm-thick live slices of freshly isolated kidneys were prepared using a Leica VT1000 Vibratome (Leica Microsystems). For Na^+ imaging, the kidney slices of WT and Klotho/VDR mice were incubated for 60 min at 37°C with 2 µM of the sodium-sensitive dye SBFI (Molecular Probes), diluted in DMSO (Merck Millipore International) and 20% Pluronic (Merck Millipore International). For Ca^2+ imaging, the kidney slices were incubated for 30 min at 37°C with 2 µM of the calcium-sensitive dye Fluo-4 (Molecular Probes), diluted in DMSO and 20% Pluronic. Thereafter, the slices were washed two times for 20 min each in 0.1M PBS, and were subsequently incubated in vitro with vehicle (PBS), rFGF23 R176/179Q [(100 or 200 ng/ml) kindly provided by Amgen Inc., Thousand Oaks, CA, USA], PD173074 (Sigma-Aldrich) (10 nM for inhibiting FGFR1 and 25 nM for inhibiting FGFR1 and 3), pan FGFR inhibitor [(120 nM) FIIN1 hydrochloride, Tocris Bioscience, Bristol, UK)], WNK signalling inhibitor Closantel (30 ng/mL, generous gift of Dario R. Alessi) alone or combined at 37°C, 5% CO2 / 95% air humidified atmosphere for 2 h. […] For visualization of intracellular Na^+ and Ca^2+ content, SBFI or Fluo-4 were excited by a Ti:sapphire laser (Chameleon, Coherent Inc.) at 820 nm. Images (512 × 512 pixels) were acquired every 30 sec at a depth of 60 - 80 µm. Fluorescence images were analyzed using Image J software. The whole epithelial layer of the distal tubules was selected by manually drawing the region of interest (ROI) to quantify intracellular Na^+ and Ca^2+ levels. Fluorescence intensity was quantified in 4-9 ROIs per image, and the ratio between the fluorescence intensity and the ROI area was calculated for each tubule. This ratio was used for all subsequent calculations.
(§3) To gain more insight into the functional role of the rFGF23-induced increase in distal renal tubular ion channel expression and the FGF receptors involved, we performed intracellular Ca^2+ and Na^+ imaging by 2-photon microscopy in Fluo-4- or SFBI-loaded and subsequently rFGF23-treated (100 or 200 ng/ml for 2 h), 200-µm-thick renal slices prepared from WT and Klotho/VDR mice.
(§4) In this example it was assessed whether the Klotho-independent FGF23 signalling pathway is mediated through FGFR3 and/or 4, given that FGFR2 expression was low in distal renal tubules (Figure 12A). To dissect between the latter receptors, Klotho/VDR kidney slices were treated with rFGF23 alone or in combination with an FGFR1/FGFR3 inhibitor and the WNK signalling inhibitor closantel.

Test [2] has as its system renal distal tubules. Kind of test: Intracellular Na+ imaging by 2-photon microscopy in SBFI-loaded live kidney slices ex vivo. In kind it is cell-based, mice. As to conditions: for rFGF23-induced increase in intracellular Na^+ fluorescence (distal tubular Na^+ uptake): co-treatment with 200 ng/ml rFGF23, 2 h, iFGFR pan 120 nM; for decrease of SFBI fluorescence intensity in distal tubules: rFGF23-treated WT kidney slices, CTZ 10 µM. How it is done:
as §1, §2, §3, §4

For a further test, the system named is 5/6 Nx C57BL/6 mice. Kind of test: 5/6 nephrectomy with angiotensin II infusion via osmotic mini-pumps. In kind it is in vivo. Conditions: AngII- vs. vehicle-treated 5/6-Nx mice, 4 and 8 weeks postsurgery. How it is done:
The 5/6 nephrectomy (5/6 Nx) was performed in two stages (Leelahavanichkul A et al., Kidney Int. 78, 2010. 1136-1153) under isoflurane anesthesia (Fig. 1A). Pain was managed by s.c. injections of buprenorphine, metamizol and meloxicam. Additionally, the animals were treated for 3 days postsurgery with the analgesic piritramid via the drinking water, starting 6 h postsurgery. At the first stage (wk -1), the left kidney was decapsulated to avoid ureter and adrenal damage, and the upper and lower poles were partially resected via a left flank incision. Bleeding was controlled by microfibrillar collagen hemostasis (Avitene, Davol, Cranston, RI). The upper and lower poles were weighed. One week later, the entire right kidney was removed via a right flank incision and weighed. Animals with insufficient kidney resection as determined by a ratio of < 0.55 for the removed left kidney weight to the removed right kidney weight were euthanized. In the Sham surgery control mice, a left flank incision was performed at step 1, both poles of kidney were identified, then the flank incision was closed; a subsequent right flank incision was performed at step 2; the right renal artery was identified, then the flank incision was closed. After each flank incision, muscles and skin were repositioned and sewed. Mortality was tracked throughout the study. Necropsy was not performed on animals that died early.
Angiotensin II (Ang II) 0.75 µg/kg/min (Sigma) in physiological saline or vehicle was infused by subcutaneous osmotic mini-pumps (Alzet model 1004, Cupertino, CA) (Leelahavanichkul A et al., Kidney Int. 78, 2010. 1136-1153). The osmotic minipumps were inserted subcutaneously at the back under isoflurane anesthesia at 5 days after right NX or Sham surgery (Fig. 1A).
In order to test susceptibility of C57BL/6 mice to 5/6 nephrectomy (5/6-Nx)- and angiotensin II (AngII) infusion-induced CKD, 5/6-Nx was performed and osmotic minipumps continuously releasing vehicle or AngII were thereafter implanted into male wild-type (WT) C57Bl/6 mice, which were then monitored over 8 weeks after 5/6-Nx. All mice were maintained on rescue diet.

In another test the target is SPAK (Homo sapiens, UniProt Q9UEW8). As to conditions: dose-dependent manner; literature (Yamada et al. 2016; Mori et al. 2013); cited from earlier work.
The target in the next test is WNK-SPAK binding (Homo sapiens, UniProt Q9UEW8). Conditions: literature (Mori et al. 2013); cited from earlier work.
The subject of the next test is OSR1. Conditions: dose-dependent manner; literature (Yamada et al. 2016); cited from earlier work.
Another test concerns the target TRPV5 (Homo sapiens, UniProt Q9NQA5). As to conditions: 1 µM; literature (Nilius et al. 2001); cited from earlier work.
For a further test, the target named is T1, TRPV6 (Homo sapiens, UniProt Q9H1D0).
T1 sequence (Q9H1D0 1-765): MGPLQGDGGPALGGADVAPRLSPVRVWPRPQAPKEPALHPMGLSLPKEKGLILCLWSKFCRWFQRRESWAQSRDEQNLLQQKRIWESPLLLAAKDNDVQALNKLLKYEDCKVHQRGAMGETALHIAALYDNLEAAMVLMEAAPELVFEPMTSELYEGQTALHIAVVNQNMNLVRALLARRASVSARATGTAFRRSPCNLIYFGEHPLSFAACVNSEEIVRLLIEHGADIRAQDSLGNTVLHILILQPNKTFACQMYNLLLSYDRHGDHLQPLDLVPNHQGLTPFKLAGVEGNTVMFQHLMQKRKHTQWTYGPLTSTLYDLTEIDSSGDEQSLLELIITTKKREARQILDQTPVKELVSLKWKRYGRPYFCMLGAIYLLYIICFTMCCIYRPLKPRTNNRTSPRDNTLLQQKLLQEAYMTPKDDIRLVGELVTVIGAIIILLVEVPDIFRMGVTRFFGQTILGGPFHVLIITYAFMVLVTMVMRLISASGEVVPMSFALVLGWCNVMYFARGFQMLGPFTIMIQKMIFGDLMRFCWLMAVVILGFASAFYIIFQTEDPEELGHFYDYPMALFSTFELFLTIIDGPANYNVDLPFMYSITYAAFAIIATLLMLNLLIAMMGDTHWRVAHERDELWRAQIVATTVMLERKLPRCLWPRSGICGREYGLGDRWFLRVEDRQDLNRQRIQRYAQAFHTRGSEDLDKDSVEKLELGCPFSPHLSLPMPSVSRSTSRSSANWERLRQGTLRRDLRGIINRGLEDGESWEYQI
As to conditions: 1 µM; literature (Nilius et al. 2001); cited from earlier work.

Setting [3] is: Klotho/VDR kidney slices, ruthenium red 10 µM, closantel 30 ng/mL, PD173074 10 nM (iFGFR1) or 25 nM (FGFR1/3).
[4] abbreviates: WT kidney slices, ruthenium red 1 µM, iFGFR1 PD173074 10 nM.
Setting [5] is: Klotho/VDR kidney slices, closantel 30 ng/mL, BF 15 µM, PD173074 10 nM (iFGFR1) or 25 nM (FGFR1/3).
The mark [6] stands for this setting: WT kidney slices, iFGFR1 PD173074 10 nM.

This is an account of results in patent EP3403652A1, “PREVENTION AND TREATMENT OF FIBROBLAST GROWTH FACTOR 23 (FGF23)-ASSOCIATED DISORDERS INCLUDING CHRONIC KIDNEY DISEASE (CKD)” (Veterinärmedizinische Universität Wien, priority 2017, dated 2018).

TRPV5, sequence (Q9NQA5 whole entry, species assumed): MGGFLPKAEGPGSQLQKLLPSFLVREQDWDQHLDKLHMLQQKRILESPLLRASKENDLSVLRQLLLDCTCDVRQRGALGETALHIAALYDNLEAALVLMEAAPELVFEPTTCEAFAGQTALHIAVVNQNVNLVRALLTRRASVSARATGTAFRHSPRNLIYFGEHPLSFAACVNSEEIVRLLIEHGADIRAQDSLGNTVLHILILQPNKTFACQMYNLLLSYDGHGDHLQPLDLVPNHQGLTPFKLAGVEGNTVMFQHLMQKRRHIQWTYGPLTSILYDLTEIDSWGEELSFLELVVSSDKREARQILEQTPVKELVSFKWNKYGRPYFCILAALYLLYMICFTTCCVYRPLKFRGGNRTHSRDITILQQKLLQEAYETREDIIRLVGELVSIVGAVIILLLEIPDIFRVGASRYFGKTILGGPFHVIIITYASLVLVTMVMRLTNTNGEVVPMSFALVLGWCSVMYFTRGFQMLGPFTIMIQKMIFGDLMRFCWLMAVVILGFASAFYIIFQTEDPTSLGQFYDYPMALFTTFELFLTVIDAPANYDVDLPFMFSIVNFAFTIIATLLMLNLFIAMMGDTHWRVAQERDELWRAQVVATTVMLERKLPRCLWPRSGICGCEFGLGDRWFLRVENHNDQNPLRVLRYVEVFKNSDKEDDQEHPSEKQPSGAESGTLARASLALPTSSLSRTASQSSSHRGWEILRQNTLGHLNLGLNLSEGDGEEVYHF

In the case of `CCN(CC)CCCCNc1ncc2cc(-c3cc(OC)cc(OC)c3)c(NC(=O)NC(C)(C)C)nc2n1` [iFGFR1, PD173074], the “rFGF23-induced increase in intracellular Ca^2+ fluorescence (distal tubular Ca^2+ uptake)” value in the test with renal distal tubules [1] (setting [3]) was “no effect”; in the test with renal distal tubules [1] (Klotho/VDR kidney slices, ruthenium red 10 µM, closantel 30 ng/mL, PD173074 10 nM (iFGFR1) or 25 nM (FGFR1/3), listed as FGFR1/3 inhibitor) it was “partially blocked”; with renal distal tubules [1] (setting [4]), “largely blocked”. Further, the “rFGF23-induced increase in intracellular Na^+ fluorescence (distal tubular Na^+ uptake)” value in the test on renal distal tubules [2] (setting [5]) is “no effect”; in the test with renal distal tubules [2] (Klotho/VDR kidney slices, closantel 30 ng/mL, BF 15 µM, PD173074 10 nM (iFGFR1) or 25 nM (FGFR1/3), listed as FGFR1/3 inhibitor) it was “completely blocked”; in the test with renal distal tubules [2] (setting [6]), “largely blocked”.

In the case of `CCCCNc1cc(C(=O)O)cc(S(N)(=O)=O)c1Oc1ccccc1` [BF, bumetanide], in the test on renal distal tubules [2] (setting [5]), the “rFGF23-induced increase in intracellular Na^+ fluorescence (distal tubular Na^+ uptake)” value is reported as “inhibited”. Also, the “decrease of SFBI fluorescence intensity in distal tubules” value in the test with renal distal tubules [2] (BF 15 µM) is on record as “approximately 50%”.

In the case of “Angiotensin II (DRVYIHPF; Angiotensin-2; UniProt P01019 25-32, looked up) [AngII, Angiotensin II (Sigma) infused by subcutaneous osmotic mini-pumps]”, the GFR entry with 5/6 Nx C57BL/6 mice (0.75 µg/kg/min s.c. infusion) was “no significant differences”. Further, in the test with 5/6 Nx C57BL/6 mice, the azotemia entry is listed as “no significant differences”, the “mean arterial pressure measured by arterial catheterization” value is on record as “no significant differences” and the proteinuria result is “no significant differences”.

As to `CCOc1ccc2nc3cc(NCc4ccco4)ccc3c(N)c2c1` [STOCK2S-26016, 7-Ethoxy-N3-(2-furanylmethyl)-3,9-acridinediamine], on SPAK, the SPAK phosphorylation result is “preventing”. Besides, at WNK-SPAK binding, the WNK-SPAK binding entry is on record as “preventing”.

For the compound `C=CC(=O)Nc1cccc(CN2C(=O)N(c3c(Cl)c(OC)cc(OC)c3Cl)Cc3cnc(NCCCCN(CC)CC)nc32)c1.Cl` [iFGFR pan, FIIN1 hydrochloride], the “rFGF23-induced increase in intracellular Ca^2+ fluorescence (distal tubular Ca^2+ uptake)” value in the test on renal distal tubules [1] (setting [3]) and with renal distal tubules [1] (setting [4]) was “completely blocked” throughout. Besides, the “rFGF23-induced increase in intracellular Na^+ fluorescence (distal tubular Na^+ uptake)” value in the test with renal distal tubules [2] (setting [5]) and in the test with renal distal tubules [2] (setting [6]) was “completely blocked” in each case.

Consider `NS(=O)(=O)c1cc2c(cc1Cl)N=CNS2(=O)=O` [CTZ, chlorothiazide], for which, in the test with renal distal tubules [2] (BF 15 µM), the “decrease of SFBI fluorescence intensity in distal tubules” value is recorded as “approximately 50%”.

For `CC(C)(C)NC(=O)c1cncn1C1CCN(c2ccc(-c3nnc(C(F)(F)F)o3)cn2)CC1` [WNK463, N-tert-butyl-3-[1-[5-[5-(trifluoromethyl)-1,3,4-oxadiazol-2-yl]pyridin-2-yl]piperidin-4-yl]imidazole-4-carboxamide], at SPAK, the SPAK phosphorylation result was “decreases”. Further, the OSR1 phosphorylation result with OSR1 is recorded as “decreases”.

In the case of `N.N.N.N.N.N.N.N.N.N.N.N.N.N.[Cl-].[Cl-].[Cl-].[Cl-].[Cl-].[Cl-].[O-2].[O-2].[Ru+3].[Ru+3].[Ru+4]` [ruthenium red], the “rFGF23-induced increase in intracellular Ca^2+ fluorescence (distal tubular Ca^2+ uptake)” value in the test on renal distal tubules [1] (setting [3]) is “antagonize”; in the test with renal distal tubules [1] (setting [4]), “reversed”. Moreover, the TRPV5 channel function entry at TRPV5 is recorded as “block”. Besides, the TRPV6 channel function entry at TRPV6 is given as “not”.
